Measurements taken from patent publication US10759777B2, “Carbazole-containing amides, carbamates, and ureas as cryptochrome modulators” (Synchronicity Pharma, Inc., priority 2014, dated 2020).

Legend:
[1] = system: core clock genes Per2, Bmal1, Cry2 in liver; test: Four day study, liver core clock gene mRNA in ICR mice; assay type: in vivo, mouse; conditions: 50 mg/kg PO BID 4 days
Protocol: Male ICR mice (weighing 30-35 g), obtained from Charles River Laboratories (Hollister, Calif.), were used for the experiment following at least 3 days of acclimation. Mice were dosed with vehicle (WFI or 10% Kolliphor) or compound (50 mg/kg, dose volume 5 mL/kg, PO) for 4 days BID (twice a day), beginning in the afternoon of the first day. The last dose of compound or vehicle was administered on the morning of harvest. On the day of harvest (6 hours following the final dose), mice were euthanized by CO2 asphyxiation and 50 mg of liver tissue was excised and placed in a tube containing 500 μl of RNA later.
E.Z.N.A.® HP Total RNA Isolation Kits (R6812-01 and the protocol described in the Manual, Revised 2010) were utilized to prepare and isolate RNA from the liver samples. To prepare the RNA samples, 10-30 mg of sample was removed from RNA-Later and placed in a 1.5 ml microfuge tube. GTC lysis buffer (700 μl) was added to the tissue, which was homogenized with a rotor-stator homogenizer (e.g. Tissue-Tearor, Model #985370 BioSpec Products with 4.5 mm probe, Cat. #985370-04), and then centrifuged at full speed (≥13,000×g) for 5 minutes. The cleared supernatant was transferred by pipetting to a DNA Clearance Column Pre-inserted in a 2 mL Collection Tube. The assembled column was centrifuged at 13,000×g for 1 minute, and the flow-through was saved. An equal volume (700 μl) of 70% ethanol was added to the lysate and mixed. The sample was then applied to a HiBind RNA spin column placed into a 2 ml collection tube, which was centrifuged at 10,000×g for 60 seconds at room temperature. RNA Wash Buffer I (250 μl) was added by pipetting directly onto a new HiBind RNA column inserted in a 2 ml collection tube. The assembled column was centrifuged at 10,000×g for 60 seconds. The RNA column was placed into a new 2 ml collection tube. DNase I stock solution is pipetted (75 μl) directly onto the surface of the HiBind RNA resin in each column (Using DNAse Digestion with RNase Free DNase Set (E1091): for each HiBind RNA column, the DNase I stock solution was prepared as followed: E.Z.N.A.® DNase I Digestion Buffer 73.5 μl, RNase Free DNase I (20 Kunitz/μl) 1.5 μl=Total Volume 75 μl). The column with bound RNA was incubated at room temperature (25-30° C.) for 15 minutes. RNA Wash Buffer I (500 μl) was added to the column and placed on a bench top for 2 minutes. After centrifuging at 10,000×g for 60 seconds, discarding the flow-through, 500 μl of RNA Wash Buffer II was added and centrifuged at 10,000×g for 60 seconds. Another 500 μl of RNA Wash Buffer II was added and the column assembly was centrifuged at 10,000×g for 60 seconds. The column was centrifuged for 2 minutes at maximum speed to completely dry the HiBind matrix. The column was placed in a clean 1.5 ml microcentrifuge tube and 40-70 μl of molecular biology grade water is added. After sitting for 1 minute, the column was centrifuged for 2 minutes at maximum speed to elute the RNA. The isolated RNA was collected into the collection tube.
RediPlate 96 RiboGreen RNA Quantification Kit (Invitrogen) RediPlate standard curve was prepared by transferring 20 l reconstituted RNA standard to a RediPlate well reconstituted in 180 l RediPlate TE buffer. For liver RNAs prepared from 30-100 mg of tissue using a kit similar to the Omega Bio-Tek HP Total RNA Kit and eluted in RNAse-free water in a volume of 50 l (microliters), 5 l of the total RNA is diluted in 195 l of RediPlate TE buffer (1:40 dilution of RNA), mix. After transferring 5 l to RediPlate well reconstituted in 195 l TE buffer and incubating 10 min. at RT, Fluorescence Intensity of wells with standards and samples were read in a Tecan M200 with Excitation set at 480 nm and Emission set at 520 nm with the gain set to ˜70%. Alternatively, one can use the FlexStation 3 with Ex 488 nm and Em 525 nm and a Cutoff of 515 nm.

C57/Bl6J DIO mice = test: Increasing dosages of Compound 72 in diet-induced obesity (DIO) mouse model; assay type: in vivo; conditions: 10, 30, 100 mg/kg PO QD 7 days
From the text: Male C57/Bl6J DIO mice were obtained from The Jackson Laboratory (Sacramento, Calif.). […] Animals were accustomed to these conditions for at least 2 weeks before experimentation and used at approximately 24 weeks of age.
Significance was accepted when p<0.05.
Male C57/Bl6J DIO mice were obtained from The Jackson Laboratory (Sacramento, Calif.). […] Animals were accustomed to these conditions for at least 2 weeks before experimentation and used at approximately 26 weeks of age.

[2] = system: rat model of cortisone-induced insulin resistance; test: Cortisone induced insulin resistance in rats; assay type: in vivo; conditions: 50 mg/kg po with cortisone 30 mg/kg sc
Protocol: Animals were dosed with cortisone (30 mg/kg sc qd) in combination with test compounds for 6 days and then terminated 27 hours after the final dose of cortisone. A reference standard (Mifepristone) was also included. Cortisone 21-acetate (Sigma C-3130) was supplied by RenaSci and administered using a dose volume of 5 ml/kg via the subcutaneous route as a fine suspension in 1% methylcellulose. […] Mifepristone (Sigma M8046) was provided by RenaSci.
Glucose and insulin determinations were performed on plasma samples obtained from a tail vein bleed taken after a 12 h fast, approximately 27 h after the last cortisone dose. Animals were then terminated and a terminal (cardiac) blood sample taken from which plasma was prepared.
Thirty four male Sprague Dawley rats (weight range 200-250 g) were ordered from Charles River, Margate, Kent, UK. […] Subsequently, animals underwent a 3 day baseline period during which they were dosed once daily with vehicle at t=0 h (07:00). […] Body weight was recorded immediately before dosing began at 07:00 (t=0 h).
On Day 6 of dosing rats were fasted for 12 h beginning at 22:30 (timed to coincide with the Day 7 termination). […] At 10:30 on Day 7, 27 h after the final dose of cortisone, a blood sample (300 μl) was taken from the lateral tail vein into tubes containing EDTA (Sarstedt 16.444). The blood was centrifuged and resultant plasma aliquot stored at −75° C. The animals were euthanized by CO2 asphyxiation followed by cervical dislocation. Terminal blood (approximately 10 ml) was collected by cardiac puncture into tubes containing EDTA (Sarstedt 5 ml 32.332) and then centrifuged and plasma stored at −75° C. The tail vein plasma was analyzed for glucose (n=2) using a commercial clinical reagent (Thermoelectron Infinity glucose reagent (TR15421) and for insulin (n=1) using the Mercodia ultrasensitive rat insulin rat ELISA (10-1251-10).
Plasma glucose and insulin were analyzed by robust regression or general linear model with treatment as a factor and bleeding order and baseline body weight as covariates. A log transformation was used if appropriate. Appropriate multiple comparison tests (two-tailed) were used to determine significant differences from the vehicle group and from the Cortisone group. P<0.05 was considered to be statistically significant.

Q: How did the “liver Per2 expression” value ([1]; ZT6) turn out when O=C1NCCN1CC(O)Cn1c2ccc(F)cc2c2cc(F)ccc21 (centres unmarked) [Compound 72, 1-(3-(3,6-difluoro-9H-carbazol-9-yl)-2-hydroxypropyl)imidazolidin-2-one] was run?
A: Its value is “suppression”.

Q: And the Cry2 transcripts ([1]; liver)?
A: The Cry2 transcripts was “decrease”.

Q: And the “increase in Bmal1 mRNA at ZT6” value ([1]; liver)?
A: The value was 4 fold.

Q: And the “OGTT glucose excursion following a glucose load” value (C57/Bl6J DIO mice)?
A: The value was “reduction in glucose excursion”.

Q: What about the fasted plasma insulin [2] of the same compound?
A: Its fasted plasma insulin is 5.24 ± 1.11 ng/mL.
